Active and inactive are the calls of the source. The rule behind the calls is not given here.
How the values were obtained:
[1] = system: HCT-116; experiment: Antiproliferative activity against human HCT116 cells after 72 hrs by MTS assay; type: functional
[2] = organism: Ovis aries; experiment: Inhibition of sheep brain tubulin polymerization assessed as reduction in rate of microtubule assembly at 200 uM by DAPI-fluorescence based assay
[3] = system: U-87 MG; experiment: Antiproliferative activity against human U87 cells after 72 hrs by MTS assay; type: functional, U-87MG ATCC
[4] = system: HT-29; experiment: Antiproliferative activity against human HT-29 cells after 72 hrs by MTS assay; type: functional
[5] = system: K562; experiment: Antiproliferative activity against human K562 cells after 72 hrs by MTS assay; type: functional
[6] = molecular target: T1, Protein deacetylase HDAC6 (Homo sapiens) (UniProt Q9UBN7); experiment: Inhibition of HDAC6 in human HT-29 cells assessed as acetylated alpha-tubulin levels at 25 uM after 6 hrs by Western blot analysis relative to control; type: cell-based
T1 sequence (whole entry): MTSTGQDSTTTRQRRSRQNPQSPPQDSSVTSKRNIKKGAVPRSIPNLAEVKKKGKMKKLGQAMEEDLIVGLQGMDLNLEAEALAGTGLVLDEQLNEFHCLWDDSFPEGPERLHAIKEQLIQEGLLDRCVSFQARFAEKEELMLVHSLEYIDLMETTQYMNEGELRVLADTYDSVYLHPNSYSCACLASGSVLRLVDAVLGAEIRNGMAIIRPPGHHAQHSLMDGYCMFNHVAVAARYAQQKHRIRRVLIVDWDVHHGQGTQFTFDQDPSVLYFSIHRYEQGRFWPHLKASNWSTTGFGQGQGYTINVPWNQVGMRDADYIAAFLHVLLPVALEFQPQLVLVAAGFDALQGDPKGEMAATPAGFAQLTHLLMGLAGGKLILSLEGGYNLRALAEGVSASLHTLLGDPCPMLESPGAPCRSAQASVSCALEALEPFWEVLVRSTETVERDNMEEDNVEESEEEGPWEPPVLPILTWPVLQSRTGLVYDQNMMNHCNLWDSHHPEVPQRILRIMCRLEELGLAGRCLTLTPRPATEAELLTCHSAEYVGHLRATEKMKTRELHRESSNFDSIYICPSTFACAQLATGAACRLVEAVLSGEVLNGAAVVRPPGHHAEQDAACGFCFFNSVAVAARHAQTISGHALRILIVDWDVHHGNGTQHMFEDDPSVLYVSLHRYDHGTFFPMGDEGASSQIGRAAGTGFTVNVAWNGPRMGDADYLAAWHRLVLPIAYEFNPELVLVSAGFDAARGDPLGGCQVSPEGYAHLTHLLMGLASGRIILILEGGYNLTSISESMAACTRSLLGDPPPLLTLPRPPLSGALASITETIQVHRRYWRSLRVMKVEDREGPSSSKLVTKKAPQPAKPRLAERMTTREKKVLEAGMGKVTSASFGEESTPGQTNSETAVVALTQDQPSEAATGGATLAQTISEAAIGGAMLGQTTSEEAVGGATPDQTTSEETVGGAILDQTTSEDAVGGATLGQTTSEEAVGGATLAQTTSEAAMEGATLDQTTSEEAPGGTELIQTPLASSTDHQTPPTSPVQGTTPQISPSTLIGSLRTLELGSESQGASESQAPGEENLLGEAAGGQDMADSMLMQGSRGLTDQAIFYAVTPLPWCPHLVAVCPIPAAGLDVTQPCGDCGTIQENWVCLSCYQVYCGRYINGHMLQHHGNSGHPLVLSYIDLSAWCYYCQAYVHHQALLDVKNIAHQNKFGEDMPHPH

[7] = system: K-562R; experiment: Antiproliferative activity against human K562R cells after 72 hrs by MTS assay; type: functional
[8] = molecular target: T2, Histone deacetylase 8 (Homo sapiens) (UniProt Q9BY41); experiment: Inhibition of HDAC8 in human HT-29 cells assessed as acetylated SMC3 levels at 25 uM after 6 hrs by Western blot analysis relative to control; type: cell-based
T2 sequence (whole entry): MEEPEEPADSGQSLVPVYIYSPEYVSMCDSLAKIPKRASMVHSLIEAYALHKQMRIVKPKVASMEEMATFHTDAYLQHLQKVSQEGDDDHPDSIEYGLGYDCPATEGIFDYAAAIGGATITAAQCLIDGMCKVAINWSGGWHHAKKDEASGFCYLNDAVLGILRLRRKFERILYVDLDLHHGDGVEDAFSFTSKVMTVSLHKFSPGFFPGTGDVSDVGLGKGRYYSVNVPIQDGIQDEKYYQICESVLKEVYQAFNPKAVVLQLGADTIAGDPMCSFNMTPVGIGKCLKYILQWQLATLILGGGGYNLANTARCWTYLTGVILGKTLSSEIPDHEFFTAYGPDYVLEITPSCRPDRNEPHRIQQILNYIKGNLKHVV

[9] = molecular target: T2, Histone deacetylase 8 (Homo sapiens); experiment: Inhibition of HDAC8 in human HT-29 cells assessed as acetylated SMC3 levels at 25 uM after 24 hrs by Western blot analysis relative to control; type: cell-based
[10] = system: BXPC-3; experiment: Antiproliferative activity against human BxPC3 cells after 72 hrs by MTS assay; type: functional
[11] = system: MCF7; experiment: Antiproliferative activity against human MCF7 cells after 72 hrs by MTS assay; type: functional
[12] = molecular target: T1, Protein deacetylase HDAC6 (Homo sapiens); experiment: Inhibition of HDAC6 in human HT-29 cells assessed as acetylated alpha-tubulin levels at 25 uM after 24 hrs by Western blot analysis relative to control; type: cell-based
[13] = system: MIA PaCa-2; experiment: Antiproliferative activity against human MIAPaCa2 cells after 72 hrs by MTS assay; type: functional
[14] = system: A549; experiment: Antiproliferative activity against human A549 cells after 72 hrs by MTS assay; type: functional
[15] = system: PC-3; experiment: Antiproliferative activity against human PC3 cells after 72 hrs by MTS assay; type: functional
[16] = Inhibition of sheep brain tubulin polymerization assessed as reduction in rate of microtubule assembly by DAPI-fluorescence based assay; parameters: species or system Ovis aries
[17] = system: HT-29; experiment: Antiproliferative activity against human HT-29 cells assessed as cell viability after 72 hrs by MTS assay relative to control; type: functional
[18] = system: HT-29; experiment: Antiproliferative activity against human HT-29 cells in presence of isoCA-4 after 72 hrs by MTS assay relative to control; type: functional, cell-based; details: HT-29, 72 h
[19] = molecular target: T3, Protein deacetylase HDAC6 (Homo sapiens, UniProt Q9UBN7)
T3 sequence (Q9UBN7 whole entry): T1 sequence (whole entry)
Description: Inhibition of human recombinant HDAC6 after 30 mins using fluorogenic substrate by fluorimetric assay

[20] = molecular target: T4, Histone deacetylase 8 (Homo sapiens, UniProt Q9BY41); experiment: Inhibition of human recombinant HDAC8 after 30 mins using fluorogenic substrate by fluorimetric assay; details: read-out: IC50
T4 sequence (Q9BY41 whole entry): T2 sequence (whole entry)

## C=C(c1ccc(OC)c(OCCCCCCC(=O)OCC)c1)c1cc(OC)c(OC)c(OC)c1
[1]; Homo sapiens, HCT-116, 72 h
  GI50: 3 µM
[2]
  inhibition: inactive

## COc1ccc(Cn2ccc3ccc(C(=O)NO)cc32)cc1
[3]; Homo sapiens, U-87 MG, 72 h
  GI50: > 15 µM
[4]; Homo sapiens, HT-29, 72 h
  GI50: > 10 µM
[5]; Homo sapiens, K562, 72 h
  GI50: 2.01 µM
[6]
  fold change (FC): 0.5
[7]; Homo sapiens, K-562R, 72 h
  GI50: 2.2 µM
[8]
  fold change (FC): 3.1
[9]
  fold change (FC): 4.8
[10]; Homo sapiens, BXPC-3, 72 h
  GI50: > 20 µM
[11]; Homo sapiens, MCF7, 72 h
  GI50: 2.97 µM
[12]
  fold change (FC): 1.7
[13]; Homo sapiens, MIA PaCa-2, 72 h
  GI50: > 20 µM
[1]; Homo sapiens, HCT-116, 72 h
  GI50: 2.64 µM
[14]; Homo sapiens, A549, 72 h
  GI50: > 20 µM
[15]; Homo sapiens, PC-3, 72 h
  GI50: 2.66 µM

## C=C(c1cc(OC)c(OC)c(OC)c1)c1ccc2c(c1)c(C(=O)NO)cn2C
[16]
  IC50: 7.3 µM
[1]; Homo sapiens, HCT-116, 72 h
  GI50: 0.03 µM

## C=C(c1ccc(OC)c(OCCCC(=O)OCC)c1)c1cc(OC)c(OC)c(OC)c1
[1]; Homo sapiens, HCT-116, 72 h
  GI50: 1 µM
[2]
  inhibition: inactive

## C=C(c1ccc(OC)c(C#CCCC(=O)OCC)c1)c1cc(OC)c(OC)c(OC)c1
[1]; Homo sapiens, HCT-116, 72 h
  GI50: 1 µM
[2]
  inhibition: inactive

## C=C(c1ccc(OC)c(OCCCC(=O)NO)c1)c1cc(OC)c(OC)c(OC)c1
[1]; Homo sapiens, HCT-116, 72 h
  GI50: 0.5 µM
[2]
  inhibition: inactive

## C=C(c1ccc(OC)c(C#CCCCC(=O)OCC)c1)c1cc(OC)c(OC)c(OC)c1
[1]; Homo sapiens, HCT-116, 72 h
  GI50: 3 µM
[2]
  inhibition: inactive

## CC(/C=C/C(=O)NO)=C\[C@@H](C)C(=O)c1ccc(N(C)C)cc1 [TRICHOSTATIN]
[3]
  GI50: 1.04 µM
[4]
  GI50: 0.0341 µM
[5]
  GI50: 0.262 µM
[7]
  GI50: 0.088 µM
[10]
  GI50: 0.1 µM
[17]
  Activity: <20%
[11]
  GI50: 0.045 µM
[18]
  IC50: 0.0038 µM
[13]
  GI50: 0.2 µM
[1]
  GI50: 0.035 µM
[14]
  GI50: 0.08 µM
[15]
  GI50: 0.387 µM

## C=C(c1cc(OC)c(OC)c(OC)c1)c1ccc2c(c1)cc(/C=C/C(=O)NO)n2C
[19]
  IC50: 3.8 µM
[16]
  IC50: 5.4 µM
[1]; Homo sapiens, HCT-116, 72 h
  GI50: 0.02 µM
[20]
  IC50: 6.2 µM

## C=C(c1cc(OC)c(OC)c(OC)c1)c1ccc(OC)c(/C=C/C(=O)NO)n1
[16]
  IC50: 7.5 µM
[1]; Homo sapiens, HCT-116, 72 h
  GI50: 0.0372 µM

## C=C(c1cc(OC)c(OC)c(OC)c1)c1ccc2c(c1)cc(C(=O)NO)n2C
[16]
  IC50: 81 µM
[1]; Homo sapiens, HCT-116, 72 h
  GI50: 0.036 µM

## C=C(c1ccc(OC)c(OCC(=O)OCC)c1)c1cc(OC)c(OC)c(OC)c1
[16]
  IC50: 5 µM
[1]; Homo sapiens, HCT-116, 72 h
  GI50: 0.15 µM

Reference: ChEMBL document CHEMBL4325829, “Design and Synthesis of Tubulin and Histone Deacetylase Inhibitor Based on iso-Combretastatin A-4” (J Med Chem, 2018)
